Several values for one entry are separate records, joined by “and”; a condition that tells them apart may be missing. Equal entries are not always repeated. Where two headings read alike, the source gives them in different places.
What was measured:
[1] = target: T1, KLHDC2 (Homo sapiens, UniProt Q9Y2U9); test: AlphaLISA competition assay (displacement of SelK C-end degron peptide from GST-KLHDC2); assay type: binding; conditions: IC50, competition with biotinylated 12 aa SelK degron peptide; 12-point titration, n = 3 technical replicates
T1 construct: human KLHDC2 (UniProt: Q9Y2U9, amino acid 1–362); made in house; host or cells: HighFive insect cells (baculovirus, pFastBac)
T1 sequence (Q9Y2U9 1-362): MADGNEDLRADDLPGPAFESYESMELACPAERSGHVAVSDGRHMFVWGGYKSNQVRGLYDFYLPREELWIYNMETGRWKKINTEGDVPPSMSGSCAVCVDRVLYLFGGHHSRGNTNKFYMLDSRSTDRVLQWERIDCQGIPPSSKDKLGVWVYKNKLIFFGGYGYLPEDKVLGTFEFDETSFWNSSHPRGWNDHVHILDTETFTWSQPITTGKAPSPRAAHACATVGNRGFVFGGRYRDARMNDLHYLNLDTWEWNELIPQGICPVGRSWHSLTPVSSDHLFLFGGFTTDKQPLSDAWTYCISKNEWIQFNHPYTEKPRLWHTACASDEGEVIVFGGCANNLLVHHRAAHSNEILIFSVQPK
Description: We took the top-ranked 1000 compounds and filtered out compounds with low predicted solubility, unsatisfied hydrogen bonds in the bound conformation, and followed by similarity clustering to reduce the redundancy in ligand structures. A total of 54 molecules that passed the filtering and clustering were manually examined for favorable interactions and geometries in PyMol[34]. Finally, 37 compounds were chosen for chemical synthesis. Out of these, 29 compounds were successfully synthesized (Supplementary Fig. 13) and characterized in an AlphaLISA competition assay, in which each compound was tested for its ability to compete with a diglycine-containing SelK C-end degron peptide for binding KLHDC2. […] This single digit μM IC50 was further confirmed in a competition assay using BioLayer Interferometry (Supplementary Fig. 14).
The kelch repeat domain of human KLHDC2 (UniProt: Q9Y2U9, amino acid 1–362) was subcloned into the pFastBac vector with an N-terminally fused glutathione-S-transferase (GST), and a TEV-cleavage site. A recombinant baculovirus was produced and amplified three times in Sf9 monolayer cells to produce P4. The P4 virus was used to infect HighFive suspension insect cell cultures to produce the recombinant GST-KLHDC2 protein. The cells were harvested 2–3 days post-infection, re-suspended, and lysed in lysis buffer (20 mM Tris, pH 8.0, 200 mM NaCl, 5 mM DTT) in the presence of protease inhibitors (1 μg/ml Leupeptin, 1 μg/ml Pepstatin and 100 μM PMSF) using a microfluidizer. The GST-KLHDC2 protein was isolated from the soluble cell lysate by PierceTM Glutathione Agarose (Thermo Scientific). For AlphaLISA competition assays, the GST-tagged KLHDC2 was further purified by Q Sepharose High-Performance resin (GE Healthcare). The NaCl eluates were subjected to a Superdex-200 size exclusion chromatography column (GE Healthcare). All samples were flash-frozen in liquid nitrogen for storage prior to use. For protein crystallization, the kelch repeat domain of human KLHDC2 (amino acids 22–362) was subcloned into the pET vector with an N-terminally fused His-elongation factor Ts (TSF) and a TEV-cleavage site. The His-TSF-KLHDC2 protein was overexpressed and purified from BL21 (DE3) E. coli cells. Bacterial cells transformed with the pET-based expression plasmid were grown in LB broth to an OD600 of 0.8–1 and induced with 0.5 mM IPTG. Cells were harvested, re-suspended, and lysed in lysis buffer (20 mM Tris, pH 8.0, 200 mM NaCl, 20 mM imidazole) in the presence of protease inhibitors (1 μg mL–1 leupeptin, 1 μg mL–1 pepstatin and 100 μM phenylmethylsulfonyl fluoride) using a microfluidizer. The His-TSF-KLHDC2 protein was isolated from the soluble cell lysate by HisPurTM Ni-NTA Superflow Agarose (Thermo Fisher Scientific, Waltham, Massachusetts). After TEV cleavage of the His-TSF, KLHDC2 was further purified by Mono Q™ 5/50 GL (GE Healthcare, Chicago, Illinois). The NaCl eluates were subjected to Superdex-200 size-exclusion chromatography (GE Healthcare). Native mass spectrometry was used to confirm KLHDC2 in its apo form. The samples were concentrated by ultrafiltration to 10–22 mg mL−1. All samples were flash-frozen in liquid nitrogen for storage prior to use.
AlphaLISA assays for determining and measuring protein-protein interactions were performed using an EnSpire reader (PerkinElmer). GST-tagged KLHDC2 was attached to anti-GST AlphaLISA acceptor beads. Synthetic N-terminal biotinylated 12 aa SelK degron peptide ([Biotin]HLRGSPPPMAGG[C) (Bio-Synthesis, Inc.) was immobilized to streptavidin-coated AlphaLISA donor beads. The donor and acceptor beads were brought into proximity by the interactions between the SelK peptide and KLHDC2. Excitation of the donor beads by a laser beam of 680 nm promotes the formation of singlet oxygen. When an acceptor bead is in close proximity, the singlet oxygen reacts with thioxene derivatives in the acceptor beads and causes the emission of 615 nm photons, which are detected as the binding signal. […]

[2] = target: T1, KLHDC2; test: Octet BioLayer Interferometry competition assay (biotinylated SelK peptide / GST-KLHDC2); assay type: binding; conditions: BLI competition, C29 at 0-30 µM, 50 nM GST-KLHDC2
Procedure: Octet BioLayer interferometry competition assay monitoring the ability of C29 to interfere with the binding between the biotinylated 12 aa SelK peptide and GST-KLHDC2 was monitored using the Octet Red 96 (ForteBio, Pall Life Sciences) following the manufacturer’s procedures. The reaction was carried out in black 96 well plates maintained at 30 °C. The reaction volume was 200 μL in each well. The Octet buffer used throughout the experiment contained 20 mM Tris-HCl, 200 mM NaCl, 5 mM DTT and 0.1% BSA, pH 8.0. The Loading buffer contained the Octet buffer and biotinylated 12 aa SelK peptide, at a final concentration of 200 nM. […] The binding of the analyte GST-KLHDC2 in the presence or absence of the C29, to the optical probes was measured simultaneously using instrumental defaults for 225 sec as the probes were then incubated in Association buffer. The dissociation was measured for 600 sec while the probes were incubated in Octet buffer. […] The data were analyzed by the Octet data analysis software version 9.0.. […] The IC50 value was calculated using Prism 8 (GraphPad) from the nonlinear regression curve fit of the response values vs. log competitor concentration.
Supplementary Fig. 14 | BioLayer Interferometry competition assay of compound 29. […] The binding of the analyte GST-KLHDC2 in the presence or absence of the C29, to the loaded optical probes was measured in the association buffer. […]

[3] = target: T2, hNaV1.7 channel (Homo sapiens, UniProt Q15858); test: Whole-cell patch-clamp electrophysiology on hNaV1.7 stably expressed in HEK-293 cells; assay type: cell-based; conditions: for IC50: mean
T2 construct: expressed in transfected cells
T2 sequence (Q15858 whole entry): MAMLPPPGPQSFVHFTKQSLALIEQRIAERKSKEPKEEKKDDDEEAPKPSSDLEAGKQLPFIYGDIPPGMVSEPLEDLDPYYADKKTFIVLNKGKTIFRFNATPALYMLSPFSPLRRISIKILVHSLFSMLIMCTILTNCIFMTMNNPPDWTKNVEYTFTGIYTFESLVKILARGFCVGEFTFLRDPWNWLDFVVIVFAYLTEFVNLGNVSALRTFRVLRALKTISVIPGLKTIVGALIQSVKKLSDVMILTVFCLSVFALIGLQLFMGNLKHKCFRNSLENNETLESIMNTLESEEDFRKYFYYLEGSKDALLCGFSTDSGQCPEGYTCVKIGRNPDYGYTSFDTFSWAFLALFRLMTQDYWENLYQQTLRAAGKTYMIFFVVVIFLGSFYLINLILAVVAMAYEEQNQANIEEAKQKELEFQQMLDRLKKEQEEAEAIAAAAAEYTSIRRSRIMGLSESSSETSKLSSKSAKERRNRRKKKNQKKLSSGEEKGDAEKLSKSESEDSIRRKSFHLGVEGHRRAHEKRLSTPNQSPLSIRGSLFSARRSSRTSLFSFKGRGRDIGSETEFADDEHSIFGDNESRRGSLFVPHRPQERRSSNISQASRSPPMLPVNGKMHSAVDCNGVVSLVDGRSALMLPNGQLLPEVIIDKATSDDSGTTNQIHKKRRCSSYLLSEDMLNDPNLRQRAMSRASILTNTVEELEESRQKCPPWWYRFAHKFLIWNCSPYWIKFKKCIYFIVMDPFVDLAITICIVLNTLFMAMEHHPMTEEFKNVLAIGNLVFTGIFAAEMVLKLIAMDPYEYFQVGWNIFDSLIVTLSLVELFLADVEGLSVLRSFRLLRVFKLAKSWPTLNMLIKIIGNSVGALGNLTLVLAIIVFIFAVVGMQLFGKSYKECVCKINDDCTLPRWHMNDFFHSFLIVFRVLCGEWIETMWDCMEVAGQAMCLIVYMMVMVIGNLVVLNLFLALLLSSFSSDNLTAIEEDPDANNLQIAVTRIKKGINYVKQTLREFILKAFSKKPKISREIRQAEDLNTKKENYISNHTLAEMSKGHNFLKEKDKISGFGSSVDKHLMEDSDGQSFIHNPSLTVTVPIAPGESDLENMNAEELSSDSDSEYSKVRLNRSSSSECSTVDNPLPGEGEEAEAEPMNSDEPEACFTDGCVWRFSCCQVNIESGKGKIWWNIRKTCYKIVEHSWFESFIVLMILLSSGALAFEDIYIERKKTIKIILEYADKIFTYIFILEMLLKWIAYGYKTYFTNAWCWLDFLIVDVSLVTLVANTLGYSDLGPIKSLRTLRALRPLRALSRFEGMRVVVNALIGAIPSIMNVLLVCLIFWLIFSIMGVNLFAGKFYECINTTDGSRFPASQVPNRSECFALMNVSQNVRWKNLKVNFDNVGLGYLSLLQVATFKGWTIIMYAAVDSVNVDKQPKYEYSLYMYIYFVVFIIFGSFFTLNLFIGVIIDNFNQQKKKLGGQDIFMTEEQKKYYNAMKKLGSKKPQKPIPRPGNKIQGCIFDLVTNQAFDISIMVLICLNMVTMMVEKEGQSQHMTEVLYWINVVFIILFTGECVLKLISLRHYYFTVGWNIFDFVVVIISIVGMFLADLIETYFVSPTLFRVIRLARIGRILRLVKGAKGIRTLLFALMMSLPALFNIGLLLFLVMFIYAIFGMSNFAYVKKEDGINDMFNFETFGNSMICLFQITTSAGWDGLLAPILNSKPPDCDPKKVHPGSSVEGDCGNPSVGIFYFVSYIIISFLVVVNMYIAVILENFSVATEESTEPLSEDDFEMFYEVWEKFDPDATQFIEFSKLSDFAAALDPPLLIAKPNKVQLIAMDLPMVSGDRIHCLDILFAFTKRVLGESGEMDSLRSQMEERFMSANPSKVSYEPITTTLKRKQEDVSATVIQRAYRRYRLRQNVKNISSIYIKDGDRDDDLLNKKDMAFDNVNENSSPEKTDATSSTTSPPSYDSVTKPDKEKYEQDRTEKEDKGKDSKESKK
Description: We first clustered the top 100,000 ranked small molecules, then applied filters on the top 1000 cluster representative molecules. A total of 160 molecules that passed the clustering and filtering were examined manually. To ensure the chemical novelty of our selection, we specifically excluded molecules that contain the known arylsulfonamide warhead or structurally resemble antihistamines or beta-receptor blockers. Finally, ten molecules with Tanimoto similarities of less than 0.33 to the known inhibitors of NaV1.7 from the ChEMBL database[43],[44] were selected for synthesis. Of these, nine were successfully synthesized (Supplementary Fig. 16), and their activities were measured using the whole-cell patch-clamp electrophysiology assay on hNaV1.7 channel stably expressed in HEK-293 cells as described in Methods.
HEK-293 cells stably expressing human NaV1.5 and NaV1.7 were obtained from Dr. Chris Lossin (UC Davis, CA). HEK293 cells stably expressing HERG (hKv11.1) were a gift from Craig January (University of Wisconsin, Madison). Cells were cultured in complete DMEM supplemented with 10% FBS, 1% penicillin/streptomycin, and G418. All manual whole-cell patch-clamp recordings were performed at room temperature (22–24 °C) using an EPC-10 amplifier (HEKA Electronik, Lambrecht/Pfalz, Germany) on cells that were grown to 60–80% confluency, lifted with TrypLE, and plated onto poly-l-lysine–coated coverslips. External bath solution contains (in mM) 160 NaCl, 4.5 KCl, 2 CaCl2, 1 MgCl2, 10 HEPES (pH 7.4 and 305 mOsm) as. Patch pipettes were heat-pulled from soda lime glass (micro-hematocrit tubes, Kimble Chase, Rochester, NY) and had resistances of 2–3 MΩ when filled with an internal solution. Patch recordings of NaV1.5 and NaV1.7 channels were done using a cesium fluoride-based internal solution containing (in mM) 10 NaF, 110 CsF, 20 CsCl, 10 HEPES, 2 EGTA, (pH 7.4, 310 mOsm). Recordings of HERG channels were conducted using a potassium fluoride-based internal solution with added ATP (160 mM KF, 2 mM MgCl2, 10 mM EGTA, 10 mM HEPES, 4 mM NaATP, pH = 7.2 and 300–320 mOsm). Data acquisition and analysis were performed with Pulse-PulseFit (HEKA Electronik GmbH, Germany), IgorPro (WaveMetrics, Portland, OR), and Origin 9.0 software (OriginLab Corporation, Northampton, MA). To investigate specifically the inactivated state block of NaV1.7 and NaV1.5, holding potentials were set at the V1/2 of maximal inactivation (− 70 mV and − 80 mV, respectively) before voltage stepping to − 150 mV for 20 msec, and then 0 mV for 50 msec to elicit inward currents. Inhibition of currents in the resting state was recorded using a holding potential of − 120 mV. Control test currents were monitored for up to 5–10 min to ensure that the amplitude and kinetics of the response were stable. Series resistance was compensated to 80–90% and linear leak currents and capacitance artifacts were corrected using a P/4 subtraction method. The pulse interval was 0.1 Hz. For all experiments, stock solutions of the drugs were prepared fresh from 10 mM stocks in DMSO and test solutions prepared in external bath solutions were applied to individual cells into the recording bath. […] The percent reduction of HERG tail current amplitude by the compounds was determined. The percent of a block of tail current amplitude by the drugs was determined and data are shown as mean +/− SD (n = 3–4 per data point).

[4] = target: T3, human NaV1.5 (Homo sapiens, UniProt Q14524); test: Whole-cell patch-clamp electrophysiology on human NaV1.5 stably expressed in HEK-293 cells; assay type: cell-based; conditions: -80 mV holding potential (inactivated state); mean
T3 construct: expressed in transfected cells
T3 sequence (Q14524 whole entry): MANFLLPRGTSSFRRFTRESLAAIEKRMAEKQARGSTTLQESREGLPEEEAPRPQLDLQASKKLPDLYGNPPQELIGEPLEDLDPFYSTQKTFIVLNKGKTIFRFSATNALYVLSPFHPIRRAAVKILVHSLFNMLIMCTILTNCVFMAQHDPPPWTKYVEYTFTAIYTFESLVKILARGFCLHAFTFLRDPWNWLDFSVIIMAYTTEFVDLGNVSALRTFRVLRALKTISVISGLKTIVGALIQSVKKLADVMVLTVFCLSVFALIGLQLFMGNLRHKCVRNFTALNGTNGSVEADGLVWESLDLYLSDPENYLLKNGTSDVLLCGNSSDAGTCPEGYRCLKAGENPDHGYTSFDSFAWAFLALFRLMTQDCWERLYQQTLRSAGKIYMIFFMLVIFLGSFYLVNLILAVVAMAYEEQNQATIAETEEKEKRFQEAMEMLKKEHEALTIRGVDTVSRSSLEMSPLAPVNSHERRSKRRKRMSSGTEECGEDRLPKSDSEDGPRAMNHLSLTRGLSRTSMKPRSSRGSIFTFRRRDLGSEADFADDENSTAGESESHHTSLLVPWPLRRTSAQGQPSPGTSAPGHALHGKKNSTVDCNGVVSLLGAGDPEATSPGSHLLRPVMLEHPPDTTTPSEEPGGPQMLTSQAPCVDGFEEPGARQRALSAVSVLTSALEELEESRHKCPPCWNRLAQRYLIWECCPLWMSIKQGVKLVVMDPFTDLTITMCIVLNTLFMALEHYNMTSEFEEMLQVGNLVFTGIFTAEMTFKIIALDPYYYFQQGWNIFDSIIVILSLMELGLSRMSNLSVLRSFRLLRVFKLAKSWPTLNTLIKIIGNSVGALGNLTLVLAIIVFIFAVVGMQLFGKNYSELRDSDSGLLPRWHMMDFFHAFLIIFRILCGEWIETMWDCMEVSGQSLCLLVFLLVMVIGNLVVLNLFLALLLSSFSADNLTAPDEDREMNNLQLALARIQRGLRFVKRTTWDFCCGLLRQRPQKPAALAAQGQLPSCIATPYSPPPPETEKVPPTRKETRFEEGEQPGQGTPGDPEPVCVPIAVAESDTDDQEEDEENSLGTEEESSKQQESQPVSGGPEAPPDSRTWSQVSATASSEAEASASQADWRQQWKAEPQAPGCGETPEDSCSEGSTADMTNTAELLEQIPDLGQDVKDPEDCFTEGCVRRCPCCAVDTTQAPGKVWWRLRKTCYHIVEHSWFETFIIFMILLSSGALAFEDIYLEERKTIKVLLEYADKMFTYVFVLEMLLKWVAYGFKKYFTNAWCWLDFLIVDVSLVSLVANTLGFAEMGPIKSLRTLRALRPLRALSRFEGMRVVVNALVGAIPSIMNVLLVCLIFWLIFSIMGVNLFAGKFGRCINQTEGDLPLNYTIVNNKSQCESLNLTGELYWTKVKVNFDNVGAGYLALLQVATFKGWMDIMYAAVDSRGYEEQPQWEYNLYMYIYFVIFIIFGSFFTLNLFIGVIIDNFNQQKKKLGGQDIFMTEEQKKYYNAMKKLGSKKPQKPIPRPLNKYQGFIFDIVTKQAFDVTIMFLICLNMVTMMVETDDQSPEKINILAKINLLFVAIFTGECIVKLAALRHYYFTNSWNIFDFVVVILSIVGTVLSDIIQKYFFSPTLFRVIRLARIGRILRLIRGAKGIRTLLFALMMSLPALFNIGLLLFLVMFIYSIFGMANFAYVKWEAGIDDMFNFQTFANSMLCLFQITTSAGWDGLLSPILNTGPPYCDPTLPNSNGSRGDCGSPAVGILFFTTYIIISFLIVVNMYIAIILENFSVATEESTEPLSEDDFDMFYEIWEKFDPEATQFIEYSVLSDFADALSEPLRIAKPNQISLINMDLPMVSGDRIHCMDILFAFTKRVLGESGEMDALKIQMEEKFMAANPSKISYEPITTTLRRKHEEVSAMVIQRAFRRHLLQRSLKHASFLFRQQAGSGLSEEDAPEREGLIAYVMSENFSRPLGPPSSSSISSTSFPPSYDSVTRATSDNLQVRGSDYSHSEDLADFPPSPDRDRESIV
Procedure: (§1) HEK-293 cells stably expressing human NaV1.5 and NaV1.7 were obtained from Dr. Chris Lossin (UC Davis, CA). HEK293 cells stably expressing HERG (hKv11.1) were a gift from Craig January (University of Wisconsin, Madison). Cells were cultured in complete DMEM supplemented with 10% FBS, 1% penicillin/streptomycin, and G418. All manual whole-cell patch-clamp recordings were performed at room temperature (22–24 °C) using an EPC-10 amplifier (HEKA Electronik, Lambrecht/Pfalz, Germany) on cells that were grown to 60–80% confluency, lifted with TrypLE, and plated onto poly-l-lysine–coated coverslips. External bath solution contains (in mM) 160 NaCl, 4.5 KCl, 2 CaCl2, 1 MgCl2, 10 HEPES (pH 7.4 and 305 mOsm) as. Patch pipettes were heat-pulled from soda lime glass (micro-hematocrit tubes, Kimble Chase, Rochester, NY) and had resistances of 2–3 MΩ when filled with an internal solution. […] Inhibition of currents in the resting state was recorded using a holding potential of − 120 mV. Control test currents were monitored for up to 5–10 min to ensure that the amplitude and kinetics of the response were stable. […] The percent reduction of HERG tail current amplitude by the compounds was determined. The percent of a block of tail current amplitude by the drugs was determined and data are shown as mean +/− SD (n = 3–4 per data point).

[5] = target: T4, HERG (hKv11.1) (Homo sapiens, UniProt Q12809); test: Whole-cell patch-clamp electrophysiology on HEK293 cells stably expressing HERG, tail current; assay type: cell-based; conditions: mean
T4 construct: expressed in transfected cells
T4 sequence (Q12809 whole entry): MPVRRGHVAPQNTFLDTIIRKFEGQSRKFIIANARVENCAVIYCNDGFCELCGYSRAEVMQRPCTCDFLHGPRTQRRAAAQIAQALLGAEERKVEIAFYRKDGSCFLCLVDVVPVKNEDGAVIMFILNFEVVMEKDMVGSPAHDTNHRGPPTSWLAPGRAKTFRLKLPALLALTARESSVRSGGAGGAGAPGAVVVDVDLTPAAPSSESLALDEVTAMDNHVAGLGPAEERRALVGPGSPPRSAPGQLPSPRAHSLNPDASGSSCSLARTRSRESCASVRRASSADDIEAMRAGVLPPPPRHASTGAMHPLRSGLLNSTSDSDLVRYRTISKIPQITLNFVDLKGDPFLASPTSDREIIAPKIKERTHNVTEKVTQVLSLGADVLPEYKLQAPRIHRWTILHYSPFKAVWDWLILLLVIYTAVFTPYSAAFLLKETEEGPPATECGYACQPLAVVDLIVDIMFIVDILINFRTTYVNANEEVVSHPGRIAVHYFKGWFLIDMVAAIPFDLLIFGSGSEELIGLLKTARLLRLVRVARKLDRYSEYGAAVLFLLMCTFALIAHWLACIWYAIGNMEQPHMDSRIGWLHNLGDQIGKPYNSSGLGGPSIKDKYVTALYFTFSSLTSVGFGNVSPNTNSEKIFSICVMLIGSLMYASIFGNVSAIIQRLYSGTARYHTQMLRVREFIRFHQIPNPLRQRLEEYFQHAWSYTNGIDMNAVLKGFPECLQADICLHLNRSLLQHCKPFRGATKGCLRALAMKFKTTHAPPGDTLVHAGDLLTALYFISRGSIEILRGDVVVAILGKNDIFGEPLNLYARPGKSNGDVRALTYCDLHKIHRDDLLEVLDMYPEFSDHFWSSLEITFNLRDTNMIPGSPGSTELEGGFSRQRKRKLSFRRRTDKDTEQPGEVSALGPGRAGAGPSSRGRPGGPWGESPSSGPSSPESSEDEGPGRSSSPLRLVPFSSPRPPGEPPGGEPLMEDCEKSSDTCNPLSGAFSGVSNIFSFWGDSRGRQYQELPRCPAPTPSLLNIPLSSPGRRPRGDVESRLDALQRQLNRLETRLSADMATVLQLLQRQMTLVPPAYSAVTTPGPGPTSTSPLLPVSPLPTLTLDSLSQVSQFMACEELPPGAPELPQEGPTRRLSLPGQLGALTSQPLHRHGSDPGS
Procedure: as §1

| SMILES | IC50 [1] | IC50 [2] | IC50 ([3]; NaV1.7 inactivated state, -70 mV holding potential, read-out: inactivated-state IC50) | IC50 ([3]; NaV1.7 resting state, -120 mV holding potential, read-out: resting state IC50) [µM] | selectivity for hNaV1.7 versus hNaV1.5 and hERG channels ([3]; in words) | state dependence of NaV1.7 inhibition ([3]; inactivated versus resting state, in words) | IC50 [4] [µM] | IC50 [5] [µM] |
| --- | --- | --- | --- | --- | --- | --- | --- | --- |
| CC(C)(C)c1ccc(CSCC(=O)NCc2cn(CC(=O)O)nn2)cc1 [Compound C29] | ~3 µM and 2.9 µM | single digit |  |  |  |  |  |  |
| Cc1cc(C(C)(C)C)ccc1OCC(O)CNCc1cc(C)c(C)s1 (centres unmarked) [Compound Z8739902234, CC=1C=C(CNCC(O)COC=2C=CC(=CC2C)C(C)(C)C)SC1C] |  |  | 1.33 µM and 1.3 µM | 13.1 | moderate selectivity | state dependent | 5.14 | 6.27 |
